This is an account of results in US9403843B2, “Cysteine protease inhibitors and uses thereof” (The Trustees of Columbia University in the City of New York, priority 2012, dated 2016).

For one series, the target named is papain (Carica papaya (Papaya), UniProt P00784). Kind of series: biochemical. The series is classed as biochemical.
Series [1] is described as follows: Acute and chronic toxicity, maximum tolerated dose. Conditions: mouse, in vivo; mice; no malaise or death. Type of series: in vivo. The source says: For evaluation of acute and chronic toxicity we measured the maximum tolerated dose (MTD) in mice for 30a, 33 and 50.
The test system of series [2] is Aβ-induced LTP impairment. Kind of series: LTP rescue test. Conditions: assessed at 650 nM.
Procedure: Residual levels of potentiation were averaged during the last 5 min of LTP.
Series [3] addresses Full length porcine calpain (Sus scrofa (Pig), UniProt P35750). In words: Calpain inhibition kinetics studies (Suc-LLVY-AMC substrate). The series is classed as biochemical.
A short description of series [4]: Plasma pharmacokinetics after i.p. administration. Particulars: ICR mice. The series is classed as in vivo. Here is the method: Plasma concentrations of 30a, 33 and 50 were determined by LC-MS/MS after i.p. administration to ICR mice. The plasma concentrations at each sampling time are shown on FIG. 10. […] Indeed, following i.p. administration of 30a (7.57 mg/kg), 33 (7.86 mg/kg) and 50 (7.83 mg/kg), the peak plasma concentration occurred at 0.25, 0.5 and 0.125 h after dosing, respectively. […] The respective half-lives were ˜0.6 hrs, ˜1.1 hrs and ˜0.6 hrs.

Where [5] appears, read: ki/Ki calculated relative to E-64.
Where [6] appears, read: mean ± S.D. of triplicate experiments.

Sequence of Full length porcine calpain (P35750 whole entry): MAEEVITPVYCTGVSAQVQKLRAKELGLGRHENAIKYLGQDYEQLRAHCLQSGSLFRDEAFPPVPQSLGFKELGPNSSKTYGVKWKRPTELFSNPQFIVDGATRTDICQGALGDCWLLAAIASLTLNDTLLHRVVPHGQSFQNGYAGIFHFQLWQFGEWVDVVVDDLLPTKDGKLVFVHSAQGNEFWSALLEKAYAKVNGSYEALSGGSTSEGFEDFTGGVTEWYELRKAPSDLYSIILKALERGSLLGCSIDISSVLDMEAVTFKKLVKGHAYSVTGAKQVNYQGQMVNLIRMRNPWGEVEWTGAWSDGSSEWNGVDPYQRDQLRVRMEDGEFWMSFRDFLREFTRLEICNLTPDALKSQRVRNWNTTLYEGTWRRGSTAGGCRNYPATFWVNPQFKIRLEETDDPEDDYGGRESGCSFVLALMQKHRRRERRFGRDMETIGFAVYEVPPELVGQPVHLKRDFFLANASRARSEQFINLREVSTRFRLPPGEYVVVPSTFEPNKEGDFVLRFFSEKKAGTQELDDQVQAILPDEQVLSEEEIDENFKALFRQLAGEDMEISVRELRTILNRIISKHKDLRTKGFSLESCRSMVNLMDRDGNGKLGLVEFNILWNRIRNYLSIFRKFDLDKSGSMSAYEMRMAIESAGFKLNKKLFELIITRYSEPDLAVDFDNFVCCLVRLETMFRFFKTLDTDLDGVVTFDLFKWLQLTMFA
Sequence of Full length porcine calpain (P04574 whole entry partner): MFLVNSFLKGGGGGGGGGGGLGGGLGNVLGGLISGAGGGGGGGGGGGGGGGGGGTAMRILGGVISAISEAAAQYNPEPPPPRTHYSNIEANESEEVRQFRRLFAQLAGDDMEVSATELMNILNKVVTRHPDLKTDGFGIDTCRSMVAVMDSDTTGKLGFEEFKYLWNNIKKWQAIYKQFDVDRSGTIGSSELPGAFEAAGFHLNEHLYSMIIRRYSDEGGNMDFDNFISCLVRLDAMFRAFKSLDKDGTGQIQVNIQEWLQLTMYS
Sequence of papain (P00784 134-345): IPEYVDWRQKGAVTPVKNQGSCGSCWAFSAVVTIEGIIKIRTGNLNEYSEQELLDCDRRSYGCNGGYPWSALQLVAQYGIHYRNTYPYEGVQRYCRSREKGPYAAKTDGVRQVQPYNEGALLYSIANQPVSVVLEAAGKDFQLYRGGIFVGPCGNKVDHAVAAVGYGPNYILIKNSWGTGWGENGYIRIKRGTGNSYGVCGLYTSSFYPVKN

`O=C(O)C1OC1C(=O)N[C@@H](Cc1cscn1)C(=O)Nc1nc(-c2ccc(F)cc2)cs1` (stereo in doubt) [Compound 33, (2S,3S)-3-((S)-1-(4-(4-fluorophenyl)thiazol-2-ylamino)-1-oxo-3-(thiazol-4-yl)propan-2-ylcarbamoyl)oxirane-2-carboxylic acid]: the Ki at papain (apparent equilibrium constant, read-out: K1 Papain) turned out to be 5.3 µM; in series [3] (apparent equilibrium constant, full length Cal1, read-out: K1 Calpain1), 2600 nM. Further, the “ki Papain” value at papain (inhibition rate) turned out to be 14.8 s⁻¹. Also, the “rel Papain” value on papain (setting [5]) is 0.50. Besides, the “10^−5 × ki/Ki Papain” value on papain (setting [6]) was 27.9 ± 4.7. For the same compound, the maximum tolerated dose (MTD) – broadly, the highest dose tested that stayed within the study's limit of toxicity – in series [1] worked out at 150 mg/kg. Moreover, in series [2], the “potency for LTP rescue compared with E64” value is on record as “surpassed E64”. In series [3] (inhibition rate, full length Cal1), the “ki Calpain1” value is 0.08 s⁻¹. Further, the “relative selectivity for inhibition of Cal1 over papain (in words)” value in series [3] (ki/Ki as measure, compared with E-64) is given as “Cal1 selectivity”. Moreover, the “rel Calpain1” value in series [3] (setting [5]) is recorded as 0.98. The “10^−4 × ki/Ki Calpain1” value in series [3] (setting [6]) was 2.96 ± 0.14. For the same compound, the “time of peak plasma concentration” value in series [4] (i.p., 30a 7.57, 33 7.86, 50 7.83 mg/kg) is on record as 0.5 h. Also, in series [4] (mouse, ip, plasma), the half-life – broadly, the time needed for the level to fall by half in the phase considered – was approximately 66 min. Also, the bioavailability – broadly, the share of a dose that reaches the circulation, judged against a reference dose that is usually intravenous – in series [4] (mouse, plasma, ip, after i.p. administration, read-out: absolute bioavailability) stood at 87.3%.
